These results are taken from patent US20110003866A1, “NOVEL 2-DIMETHYLAMINO-3-AMIDO-6-AMINO-PYRIDINE DERIVATIVES USEFUL AS POTASSIUM CHANNEL ACTIVATORS” (priority 2007, published 2011).

In this assay the target is T1, human Kv72+3 channels (Homo sapiens, UniProt O43525+O43526).
T1 construct: expressed in transfected cells; host or cells: HEK293
In words: patch-clamp, HEK293 cell lines stably expressing human Kv7.2+3 channels. Format: cell-based. The settings on record: conc. 0.03 μM, −30 mV, 20 ms; current relative to baseline current defined as 100%. An excerpt:
The effect obtained by these channel activators is described as a percentage increase in baseline current at a given concentration. The baseline current is defined as 100%, and an increase in current is expressed relative to this, i.e. an increase from 1 nA to 1.2 nA is reported as 120%.
Background: In patch-clamp work, channel activity is measured electrically.

Take `CN(C)c1nc(NCc2ccc(F)cc2)ccc1NC(=O)Cc1ccc(F)c(F)c1` [Compound 1, N-[2-Dimethylamino-6-(4-fluoro-benzylamino)-pyridin-3-yl]-2-(3,4-difluoro-phenyl)-acetamide]: the “IK (%)” value was 215%.

Turning to `CN(C)c1nc(NCc2ccc(F)cc2)ccc1NC(=O)Cc1ccc(C(F)(F)F)c(F)c1` [Compound 3, N-[2-Dimethylamino-6-(4-fluoro-benzylamino)-pyridin-3-yl]-2-(3-fluoro-4-trifluoromethyl-phenyl)-acetamide], the “IK (%)” value was found to be 162%.

As to `CN(C)c1nc(NCc2ccc(F)cc2)ccc1NC(=O)CCc1cccc(F)c1` [Compound 5, N-[2-Dimethylamino-6-(4-fluoro-benzylamino)-pyridin-3-yl]-3-(3-fluoro-phenyl)-propionamide], the “IK (%)” value turned out to be 174%.

Turning to `CN(C)c1nc(NCc2ccc(F)cc2)ccc1NC(=O)CC(C)(C)C` [Compound 8, N-[2-Dimethylamino-6-(4-fluoro-benzylamino)-pyridin-3-yl]-3,3-dimethyl-butyramide], the “IK (%)” value turned out to be 233%.
